# Test results taken from patent US10561736B1, “Apoptosis inhibitor formulations for prevention of hearing loss” (Spiral Therapeutics, Inc., priority 2019, dated 2020).
# “Also recorded” adds a separate entry of the source. Read-outs that look alike come from different tables or passages of the source.
# Columns and labels:
# [1] = test system: ion channels, including hERG potassium channels; assay: effects on ion channels in CHO and HEK 293 cells; type: cell-based
# Source text: Torsadogenic refers to the development of torsade de Pointes (TdP) arrythimias.
# guinea pigs = assay: dermal sensitization range-finding pilot sub-study; type: in vivo, guinea pig; details: topical 50 μl, 200, 400, or 797 μM
# Protocol: A GLP-compliant dermal sensitization study was conducted with LPT99 in guinea pigs. The objective was to assess potential dermal sensitization of LPT99 using the Buehler test (Buehler, Arch Dermatol. 1965, 91, 171-7).
# The test article, LPT99, was in a neutral-pH, buffered, isotonic solution containing a thermoreversible compound. The vehicle control was buffered at neutral pH and formulated as for the test article; it contained POLOXAMER® 407, disodium phosphate dodecahydrate hydrogen, sodium dihydrogen phosphate dihydrate, sodium chloride, and water for injection.
# In the range-finding pilot substudy, 4 guinea pigs (2 males and 2 females; Charles River, Stone Ridge, N.Y.) were dosed.
# [2] = plasma concentrations after IT administration of LPT99-CD; type: in vivo, rat
# Protocol: In a study conducted in female Wistar rats, plasma concentrations of LPT99 were evaluated at 1 hour and 2, 4, 7, and 14 days after IT administration of a single 50 μL dose of 50, 100, or 200 μM LPT99 formulated in a 5% HPβ-cyclodextrin (“CD”) vehicle (LPT99-CD).
# [3] = test system: CisPt-induced hearing loss; assay: model of CisPt-induced hearing loss in rats; type: in vivo; details: rat
# Protocol: A model of CisPt-induced hearing loss in rats was evaluated to test the in vivo efficacy of LPT99. Ototoxicity was induced by intraperitoneal (IP) slow infusion of CisPt at doses that compared with those used in human preventions (eg, 10 mg/kg). LPT99 was administered IT 30 minutes before CisPt was given.
# The protective effect of LPT99 was evaluated 3 days after CisPt administration by functional measures, such as auditory brainstem response (ABR) threshold shift, DPOAE, and expression of biomarkers of apoptosis in cochlea and cytocochleograms.
# [4] = physical stability of drug product vials; type: physicochemical; details: for original drug concentration remaining in solution: filtered through 0.2 micron filters
# Protocol: Vials of the drug product were stored at either room temperature or 4° C. for a period greater than three months.
# [5] = cochlear distribution after IT administration (absorption); type: in vivo; details: rat; for concentration at 24 h: cochlea (cochlear homogenate), other: intratympanic (IT), read-out: mean cochlear LPT99 concentration; for peak mean cochlear LPT99 concentration: 1 hour
# Source text: Cochleae were harvested and rinsed at several timepoints after intratympanic injection of drug product. Drug concentration (y axis) in cochlear homogenates is expressed as nanograms LPT99 per gram of cochlear homogenate. • (i) Absorption
# LPT99 cochlear distribution after IT administration was studied in rats. […] LPT99 concentration was quantified with an ultra-performance liquid chromatography tandem mass spectrometry (UPLC-ESI/MS/MS) system.
# [6] = metabolic stability in microsomal and S9 hepatic fractions; type: in vitro ADME; details: after 1 hour
# Source text: The metabolic profile and stability of LPT99 was characterized in human, dog, rabbit, rat, and mouse microsomal and S9 fractions, and in human cytosolic fractions.
# HEI-OC1 cells [7] = details: cellular model of CisPt-induced apoptosis; IEB Symposium abstracts 2016; cited from earlier work
# [8] = in vitro release assay from P407 hydrogel through dialysis membrane into artificial perilymph; type: physicochemical; details: 3500 Da dialysis membrane, 37° C.
# Protocol: The in vitro release assay was performed using cellulose dialysis membranes of 3500 Da (OrDial D35-MWCO 3500, Orange Scientific) to simulate the round window membrane, located between the middle ear and the inner ear, as it is the first barrier for the drug to reach the inner ear where it will exert its pharmacological action. (See FIG. 1) Artificial perilymph (NaCl 137 mM, KCl 5 mM, CaCl2 2 mM, MgCl2 1 mM and NaHCO3 1 mM) was used to simulate the environment inside the inner ear, since this is the liquid that interact with the drug after crossing the round window. The assay was performed at 37° C., continuing with the simulation of ear conditions.
# To prepare the release assay, ten (10) mL of the LPT99 loaded hydrogel was placed inside a 3500 Da dialysis membrane, the membrane with the hydrogel was introduced into a 100 ml borosilicate glass lab bottle and 30 ml of artificial perilymph was added. All samples were kept under magnetic stirring at 37° C. […]
# Samples were taken at different time points (1 h, 3 h, 6 h, 1 day, 2 days, 3 days, 6 days, 7 days, 8 days, 9 days, 10 days, 13 days, 14 days and 15 days) at which time 5 mL were withdrawn with a graduated glass pipette and replaced with equivalent volume of artificial perilymph. The collected samples were analyzed to determine the amount of drug released from the hydrogel at each time point. […]
# HEI-OC1 cells [9] = assay: release of mitochondrial Cytc in HEI-OC1 cells with CisPt (flow cytometry); type: cell-based; details: cellular model of CisPt-induced apoptosis
# Protocol: Flow cytometry was also used to characterize the effect of LPT99 in the release of mitochondrial Cytc in HEI-OC1 cells in vitro with CisPt prevention.
# The effect of LPT99 on proliferation of non-apoptotic cells was studied. A549 cells were cultured in the presence of LPT99 for up to 6 days; the cell number was monitored by flow cytometry, and doubling time was calculated.
# caspase 3 = details: cellular model of CisPt-induced apoptosis; IEB Symposium abstracts 2016; cited from earlier work
# [10] = worst-case human plasma concentration estimate; details: assumed maximum clinical dose 200 μg, human plasma volume 2400 mL
# Protocol: These bioavailability values are similar to those described for other drugs formulated in POLOXAMER® gels and administered IT (Honeder, et al., Audiol. Neurootol. 2014, 19(3), 193-202; Wang, et al., Audiol. Neurootol. 2011, 16(4), 233-41; Yang, et al., Sci. Transl. Med. 2016, 8(356), 356ra120). Assuming a maximum clinical dose of 200 μg LPT99 and an average human plasma volume of 2400 mL (for an average 60-kg individual [typical blood plasma volume in males is ˜39 mL/kg of body weight, and in females ˜40 mL/kg]).
smiles,measurement,setting,value
"COc1ccc2[nH]cc(CCNC(=O)CC3C(=O)N(CCc4ccc(Cl)cc4Cl)CC(=O)N3CCc3cccs3)c2c1 (centres unmarked) [LPT99, 2-(4-(2,4-dichlorophenethyl)-3,6-dioxo-1-(2-(thiophen-2-yl)ethyl)piperazin-2-yl)-N-(2-(5-methoxy-1H-indol-3-yl)ethyl)acetamide]",torsadogenic / cardiotoxic risk,[1],low torsadogenic risk; also recorded: low cardiotoxic risk
same,Draize scores (erythema and edema),guinea pigs,0
same,plasma concentration at quantitation limit (3.2 nM) as share of administered dose,[2]; 50 μM dose,0.006%
same,plasma concentration at quantitation limit (3.2 nM) as share of administered dose,[2]; 100 μM dose,0.003%
same,plasma concentration at quantitation limit (3.2 nM) as share of administered dose,[2]; 200 μM dose,0.0016%
same,ABR threshold shift induced by CisPt,"[3]; IT LPT99-CD, 3 days after administration, especially 20, 28, or 40 kHz",attenuated the ABR threshold shift
same,auditory threshold shifts vs CisPt control group,[3]; IT LPT99 in hydrogel plus CisPt,significantly lower auditory threshold shifts
same,protection against CisPt-induced hearing loss,"[3]; IT LPT99 solution (hydrogel), 63 μg/mL [100 μM] and 300 μg/mL [478 μM]",protected against CisPt-induced hearing loss; also recorded: protective effects against CisPt-induced hearing loss
same,time to precipitation,[4]; vials stored at 4 C,approximately 2 months
same,original drug concentration remaining in solution,[4]; vials stored at 4 C,less than 10%
same,original drug concentration remaining in solution,[4]; vials stored at room temperature,100%
same,appearance of solution,"[4]; vials stored at room temperature, greater than three months",remained clear with no evidence of drug precipitation
same,concentration at 24 h,[5]; IT 50 μM,1.8 ng/g
same,concentration at 24 h,[5]; IT 100 μM,13.9 ng/g
same,concentration at 24 h,[5]; IT 200 μM,13.4 ng/g
same,distribution after IT administration,[5]; IT,distributes locally to the cochlea; also recorded: distributed to cochlea in a dose-dependent manner
same,peak mean cochlear LPT99 concentration,[5]; IT 50 μM,328.5 ng/g cochlea
same,peak mean cochlear LPT99 concentration,[5]; IT 100 μM,491.3 ng/g cochlea
same,peak mean cochlear LPT99 concentration,[5]; IT 200 μM,611.1 ng/g cochlea
same,metabolized,[6]; dog microsomal and S9 hepatic fractions,> 90%
same,metabolized,[6]; human microsomal and S9 hepatic fractions,> 90%
same,metabolized,[6]; mouse microsomal and S9 hepatic fractions,> 90%
same,metabolized,[6]; rabbit microsomal and S9 hepatic fractions,> 90%
same,metabolized,[6]; rat microsomal and S9 hepatic fractions,> 90%
same,cell viability,HEI-OC1 cells [7],improved cell viability
same,LPT99 release from hydrogel over time,[8],released in effective amounts for at least one week
same,release of Cytc from mitochondria,HEI-OC1 cells [9],decreased release of Cytc from mitochondria
same,caspase-3 activation,caspase 3,reduced caspase-3 activation
same,plasma LPT99 concentration if IT dose were 100% bioavailable,[10],0.066 µM
